Experimental data: patent US20080269248A1, “Tartrate and Malate Salts of Trans-1-((1R,3S)-6-Chloro-3-Phenylindan-1-Yl)-3,3-Dimethylpiperazine” (H. Lundbeck A/S, priority 2005, published 2008)

Tests used:
solubility of the salts = format: physicochemical
dopamine D1 receptors = dopamine D1 receptors (Homo sapiens, UniProt P21728); conditions: as described in PCT/DK04/000546; cited from earlier work
[1] = rabbit model; as described in PCT/DK04/000546; cited from earlier work
alfal adrenoceptors = conditions: as described in PCT/DK04/000546; cited from earlier work
[2] = test system: pigs sensitized to haloperidol; assay: dystonia in pigs sensitized to haloperidol; format: in vivo
DA D2 receptors = DA D2 receptors (Homo sapiens, UniProt P14416); conditions: as described in PCT/DK04/000546; cited from earlier work
Chain of DA D2 receptors (P14416 whole entry): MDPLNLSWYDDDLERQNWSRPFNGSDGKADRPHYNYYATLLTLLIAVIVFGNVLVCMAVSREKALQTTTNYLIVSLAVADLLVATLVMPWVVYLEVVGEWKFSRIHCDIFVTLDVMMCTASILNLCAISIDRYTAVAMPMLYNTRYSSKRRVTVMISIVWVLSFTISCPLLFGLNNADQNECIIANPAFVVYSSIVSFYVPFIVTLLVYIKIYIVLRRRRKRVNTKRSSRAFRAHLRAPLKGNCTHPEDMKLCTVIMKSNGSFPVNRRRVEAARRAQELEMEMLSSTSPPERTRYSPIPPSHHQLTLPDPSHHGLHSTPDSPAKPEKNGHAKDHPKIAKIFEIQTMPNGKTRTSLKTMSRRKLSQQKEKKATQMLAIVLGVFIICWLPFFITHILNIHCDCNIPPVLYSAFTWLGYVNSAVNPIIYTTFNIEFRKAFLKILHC

CYP2D6 = CYP2D6 (Homo sapiens, UniProt P10635); conditions: as described in PCT/DK04/000546; cited from earlier work
Chain of CYP2D6 (P10635 whole entry): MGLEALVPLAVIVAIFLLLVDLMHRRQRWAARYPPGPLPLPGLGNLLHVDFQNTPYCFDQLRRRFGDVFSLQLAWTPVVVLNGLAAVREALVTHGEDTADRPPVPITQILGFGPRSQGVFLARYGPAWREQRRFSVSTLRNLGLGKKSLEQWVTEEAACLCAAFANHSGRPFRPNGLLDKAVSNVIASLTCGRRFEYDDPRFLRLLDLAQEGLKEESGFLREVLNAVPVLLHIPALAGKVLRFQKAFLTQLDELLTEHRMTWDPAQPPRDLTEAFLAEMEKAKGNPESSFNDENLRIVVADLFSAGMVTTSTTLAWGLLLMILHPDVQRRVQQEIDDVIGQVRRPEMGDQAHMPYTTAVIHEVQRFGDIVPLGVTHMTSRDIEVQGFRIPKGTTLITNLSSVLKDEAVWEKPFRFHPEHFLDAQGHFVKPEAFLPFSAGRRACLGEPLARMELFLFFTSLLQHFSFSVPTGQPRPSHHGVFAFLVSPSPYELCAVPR

dopamine D2 receptors = dopamine D2 receptors (Homo sapiens, UniProt P14416); conditions: as described in PCT/DK04/000546; cited from earlier work
Chain of dopamine D2 receptors (P14416 whole entry): as the sequence (P14416 whole entry) above

[3] = target: dopamine (DA) D1 receptors (Homo sapiens, UniProt P21728); conditions: as described in PCT/DK04/000546; cited from earlier work
Chain of dopamine (DA) D1 receptors (P21728 whole entry): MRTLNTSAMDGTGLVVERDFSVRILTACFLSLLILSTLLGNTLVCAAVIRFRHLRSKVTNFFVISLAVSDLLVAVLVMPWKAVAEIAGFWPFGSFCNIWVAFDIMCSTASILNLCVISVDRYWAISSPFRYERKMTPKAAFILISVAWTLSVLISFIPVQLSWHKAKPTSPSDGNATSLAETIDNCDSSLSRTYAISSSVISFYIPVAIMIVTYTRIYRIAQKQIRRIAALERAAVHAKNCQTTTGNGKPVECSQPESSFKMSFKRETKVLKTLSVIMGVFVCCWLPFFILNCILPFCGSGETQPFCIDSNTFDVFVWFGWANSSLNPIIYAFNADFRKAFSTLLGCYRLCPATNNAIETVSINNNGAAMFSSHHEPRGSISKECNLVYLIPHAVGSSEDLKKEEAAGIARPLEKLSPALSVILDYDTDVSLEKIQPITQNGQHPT

[4] = target: serotonin 5-HT2a receptors (Homo sapiens, UniProt P28223); conditions: as described in PCT/DK04/000546; cited from earlier work
Chain of serotonin 5-HT2a receptors (P28223 whole entry): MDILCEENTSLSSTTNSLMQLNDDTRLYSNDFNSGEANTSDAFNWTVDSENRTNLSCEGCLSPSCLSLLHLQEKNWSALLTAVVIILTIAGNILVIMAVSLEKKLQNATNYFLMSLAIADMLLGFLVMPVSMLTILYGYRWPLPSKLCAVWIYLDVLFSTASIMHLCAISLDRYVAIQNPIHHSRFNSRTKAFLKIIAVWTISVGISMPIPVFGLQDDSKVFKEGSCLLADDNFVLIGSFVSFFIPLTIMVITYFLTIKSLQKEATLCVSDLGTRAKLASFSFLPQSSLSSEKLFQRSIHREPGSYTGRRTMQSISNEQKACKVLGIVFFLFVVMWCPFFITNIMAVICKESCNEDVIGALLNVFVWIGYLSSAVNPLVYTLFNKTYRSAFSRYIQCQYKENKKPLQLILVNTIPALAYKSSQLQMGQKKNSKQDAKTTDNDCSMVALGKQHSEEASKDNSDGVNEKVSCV

Chain of dopamine D1 receptors (P21728 whole entry): as the sequence (P21728 whole entry) above

| SMILES | solubility (solubility of the salts) | functional activity at dopamine D1 receptors (dopamine D1 receptors) | effect on the QT interval [1] | affinity for alfal adrenoceptors (alfal adrenoceptors) | induction of dystonia (EPS liability) [2] | affinity for DA D2 receptors (DA D2 receptors) | inhibition of CYP2D6 (CYP2D6) | functional activity at dopamine D2 receptors (dopamine D2 receptors) | affinity for dopamine (DA) D1 receptors [3] | functional activity at serotonin 5-HT2a receptors [4] |
| --- | --- | --- | --- | --- | --- | --- | --- | --- | --- | --- |
| CC1(C)CN([C@@H]2C[C@@H](c3ccccc3)c3ccc(Cl)cc32)CCN1.CC1(C)CN([C@@H]2C[C@@H](c3ccccc3)c3ccc(Cl)cc32)CCN1.O=C(O)C[C@H](O)C(=O)O (relative stereo) [malate salt, trans-1-((1R,3S)-6-chloro-3-phenylindan-1-yl)-3,3-dimethylpiperazinium L-malate] | 800 µg/mL | – | – | – | – | – | – | – | – | – |
| CC1(C)CN([C@@H]2C[C@@H](c3ccccc3)c3ccc(Cl)cc32)CCN1 [Compound I, trans-1-((1R,3S)-6-chloro-3-phenylindan-1-yl)-3,3-dimethylpiperazine] | – | antagonist | relatively low effect | high affinity | did not induce dystonia | high affinity | relatively weak inhibitor | antagonist | high affinity | antagonist |
